Data published in PubChem BioAssay AID2060513 (Molecular Pharmacology Branch, DTP, NCI, 2025).
Where “and” joins values, the source holds several entries; their conditions need not be identical. Equal entries are not always repeated. One block for each molecule: values may come before it.

Tested on: 299254-011-R-J1-PDC complex spheroids viability
Experiment: Anticancer human tumor 299254-011-R-J1-PDC patient-derived melanoma cell line growth inhibition [GQUAD]
Conditions: for viability, T/C: stronger effect = lower value
From the text: DNA G-quadruplex Stabilizer Agents in Combinations in Complex Spheroids
A high-throughput screen of multi-cell type tumor spheroids was designed to identify active combinations of DNA G-quadruplex stabilizer agents and targeted small molecules. Complex spheroids include a stromal component modeled by human endothelial cells (HUVEC) and fibroblasts modeled by human mesenchymal stem cells (MSCs). The concentration ranges selected for each drug and investigational agent were based upon clinically achievable concentrations if the clinical Cmax of the agent was known.
Compounds. The drugs and investigational agents: pidnarulex (CX-5461; NSC782164), APTO-253 (NSC789042), BRACO-19 (NSC847499), peposertib (NSC802822), ceralasertib (NSC780249), elimusertib (NSC800525), camonsertib (NSC841442), AZD-1390 (NSC803789), olaparib (NSC753686), talazoparib (NSC767125), ART-558 (NSC835418), sotorasib (NSC818433), MRTX-1133 (NSC836407), SN-38 (NSC673596), topotecan (NSC609699), etoposide (NSC141540), doxorubicin (NSC123127), gemcitabine (NSC613327), 5-fluorouracil (NSC19893), paclitaxel (NSC125973), vemurafenib (NSC761431), panobinostat (NSC761190), R-306465 (JNJ-16241199; NSC773264), adavosertib (NSC754352), TP-3654 (NSC805149), carboplatin (NSC241240), KSQ-4279 (NSC840948), and staurosporine (NSC755774) were obtained from the National Cancer Institute (NCI) Developmental Therapeutics Program Chemical Repository (34). The FDA-approved anticancer drug set is available from the NCI Developmental Therapeutics Program. […] The stock solutions were prepared in dimethyl sulfoxide (DMSO, Sigma-Aldrich, St. Louis, MO, cat. D2650) at 800-fold the tested concentration and stored at -70 degrees C prior to their use. All drugs and investigational agents were tested over a range starting from a high concentration at or near the clinical Cmax and decreasing in half-log increments. If the clinical Cmax for an agent had not been determined, the highest concentration tested was 10 microM.
2.3 Cell Culture. All cells were maintained in an incubator at 37 degrees C and 5% CO2 with 95% humidity. The PDC lines were cultured according to standard operating procedures established by the NCI PDMR. All PDCs were thawed and cultured in Matrigel-coated flasks prepared with a working solution of 1X Ham's F-12 nutrient mix, without supplementation (Invitrogen, cat. 11765054), 100 U/mL penicillin-streptomycin (Invitrogen, cat. 15140122), and 2.5% Matrigel (Corning Inc., cat. 354248) for the first three passages. The 857933-349-R-J2-PDC line was cultured in 6C/Colon 1B media, which includes advanced DMEM/F-12 (Thermo Fisher Scientific, cat. 12634028), 10 mM HEPES (Thermo Fisher Scientific, cat. 15630080), 1X GlutaMAX supplement (Thermo Fisher Scientific, cat. 35050061), 0.1 mg/mL primocin (InvivoGen, cat. ant-pm-2), 10% defined fetal bovine serum, heat inactivated (HyClone Laboratories Inc., cat. SH30070.03HI), 50% L-WRN conditioned media (ATCC, cat. CRL-3276), 1.25 mM N-Acetyl-L-cysteine (Sigma-Aldrich, cat. A9165), 10 mM nicotinamide (Sigma-Aldrich, cat. N0636), 1X B-27 supplement (Thermo Fisher Scientific, cat. 17504044), 1X N-2 supplement (Thermo Fisher Scientific, cat. 17502048), 10 microM Y-27632 dihydrochloride (Tocris Bioscience, cat. 1254), and 50 ng/mL human EGF recombinant protein (Thermo Fisher Scientific, cat. PHG0311). The 485176-168-R4-J1-PDC line was cultured in Panc media, which includes all 6C/Colon 1B media components plus 100 ng/mL human FGF-10 (Thermo Fisher Scientific, cat. 100-26), 500 nM SB-431542 (Selleckchem, cat. S1067), and gastrin (Tocris, cat. 3006).
[…]
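Note: spheroids exposed to the agents for seven days before readout.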
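Throughout, for viability, T/C: percent viability relative to DMSO vehicle control wells = 100%.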

Compound: CC1COCCN1c1cc(C2(S(C)(=N)=O)CC2)nc(-c2ccnc3[nH]ccc23)n1 (centres undefined)
viability, T/C (compound 0.0316 µM): 98.9% (2×) and 94.3%
viability, T/C (compound 0.1 µM): 100% and 103% and 80.5%
viability, T/C (compound 0.316 µM): 79.7% and 97% and 97.8%
viability, T/C (compound 1 µM): 68% and 100% and 61%
viability, T/C (compound 3.16 µM): 67.9% and 60.8% and 37.7%
viability, T/C (compound 10 µM): 28.7% and 29.5% and 16.5%
IC50 (curve of compound): 4.41 µM and 4.7 µM and 1.81 µM

Compound: CC1COCCN1c1cc(C2(O)CC3CCC(C2)O3)c2cnn(-c3ccn[nH]3)c2n1 (centres undefined)
viability, T/C (compound 0.0316 µM): 116% and 87.6% and 93.3%
viability, T/C (compound 0.1 µM): 42.7% and 48.7% and 67.2%
viability, T/C (compound 0.316 µM): 23.7% and 29.9% and 29.5%
viability, T/C (compound 1 µM): 12.7% and 12.4% and 18.8%
viability, T/C (compound 3.16 µM): 10.2% and 10.5% and 10.9%
viability, T/C (compound 10 µM): 4.19% and 8.01% and 5.02%
IC50 (curve of compound): 0.0926 µM and 0.0992 µM and 0.173 µM

Compound: CC(C)(O)C1CCC(Nc2ccc3ncc(-c4cccc(C(F)(F)F)c4)n3n2)CC1 (centres undefined) + CN(C)c1ccc(Nc2c3ccc(NC(=O)CCN4CCCC4)cc3nc3cc(NC(=O)CCN4CCCC4)ccc23)cc1
IC50 (curve of first compound, second compound 0.0316 µM): > 10 µM
IC50 (curve of first compound, second compound 0.1 µM): > 10 µM
IC50 (curve of first compound, second compound 0.316 µM): > 10 µM
IC50 (curve of first compound, second compound 1 µM): > 10 µM
IC50 (curve of first compound, second compound 3.16 µM): > 10 µM
IC50 (curve of first compound, second compound 10 µM): 2.73 µM
viability, T/C (second compound 0.0316 µM, first compound 0.0316 µM): 107%
viability, T/C (second compound 0.0316 µM, first compound 0.1 µM): 117%
viability, T/C (second compound 0.0316 µM, first compound 0.316 µM): 130%
viability, T/C (second compound 0.0316 µM, first compound 1 µM): 98.6%
viability, T/C (second compound 0.0316 µM, first compound 3.16 µM): 95.1%
viability, T/C (second compound 0.0316 µM, first compound 10 µM): 92.2%
viability, T/C (second compound 0.1 µM, first compound 0.0316 µM): 97.2%
viability, T/C (second compound 0.1 µM, first compound 0.1 µM): 94.7%
viability, T/C (second compound 0.1 µM, first compound 0.316 µM): 97.8%
viability, T/C (second compound 0.1 µM, first compound 1 µM): 94.5%
viability, T/C (second compound 0.1 µM, first compound 3.16 µM): 94%
viability, T/C (second compound 0.1 µM, first compound 10 µM): 121%
viability, T/C (second compound 0.316 µM, first compound 0.0316 µM): 103%
viability, T/C (second compound 0.316 µM, first compound 0.1 µM): 92%
viability, T/C (second compound 0.316 µM, first compound 0.316 µM): 101%
viability, T/C (second compound 0.316 µM, first compound 1 µM): 89.5%
viability, T/C (second compound 0.316 µM, first compound 3.16 µM): 85.1%
viability, T/C (second compound 0.316 µM, first compound 10 µM): 133%
viability, T/C (second compound 1 µM, first compound 0.0316 µM): 89.7%
viability, T/C (second compound 1 µM, first compound 0.1 µM): 103%
viability, T/C (second compound 1 µM, first compound 0.316 µM): 88.6%
viability, T/C (second compound 1 µM, first compound 1 µM): 107%
viability, T/C (second compound 1 µM, first compound 3.16 µM): 82.8%
viability, T/C (second compound 1 µM, first compound 10 µM): 100%
viability, T/C (second compound 3.16 µM, first compound 0.0316 µM): 91.5%
viability, T/C (second compound 3.16 µM, first compound 0.1 µM): 93.9%
viability, T/C (second compound 3.16 µM, first compound 0.316 µM): 117%
viability, T/C (second compound 3.16 µM, first compound 1 µM): 112%
viability, T/C (second compound 3.16 µM, first compound 3.16 µM): 65.5%
viability, T/C (second compound 3.16 µM, first compound 10 µM): 84.2%
viability, T/C (second compound 10 µM, first compound 0.0316 µM): 105%
viability, T/C (second compound 10 µM, first compound 0.1 µM): 103%
viability, T/C (second compound 10 µM, first compound 0.316 µM): 103%
viability, T/C (second compound 10 µM, first compound 1 µM): 111%
viability, T/C (second compound 10 µM, first compound 3.16 µM): 27.6%
viability, T/C (second compound 10 µM, first compound 10 µM): 56.4%

Compound: COc1cccc2c1C(=O)c1c(O)c3c(c(O)c1C2=O)CC(O)(C(=O)CO)CC3OC1CC(N)C(O)C(C)O1 (centres undefined)
viability, T/C (compound 0.0316 µM): 107% and 92.6% and 98%
viability, T/C (compound 0.1 µM): 99.6% and 107% and 89.3%
viability, T/C (compound 0.316 µM): 88.1% and 81.5% and 113%
viability, T/C (compound 1 µM): 75.9% and 86.5% and 81.4%
viability, T/C (compound 3.16 µM): 60.2% and 77% and 70.5%
viability, T/C (compound 10 µM): 21.2% and 28% and 20.3%
IC50 (curve of compound): 3.89 µM and 5.82 µM and 4.94 µM

The next lines start with results.

IC50 (curve of compound): 8.53 µM and 9.96 µM and 9.31 µM
Compound: COc1ccc([C@@H](O)c2cc(-c3ncnc4cc(N5CCOCC5)ccc34)c(F)cc2Cl)nn1
viability, T/C (compound 0.0316 µM): 119% and 95% and 106%
viability, T/C (compound 0.1 µM): 103% and 97.4% and 85.3%
viability, T/C (compound 0.316 µM): 121% and 93.8% and 102%
viability, T/C (compound 1 µM): 89.3% and 96.7% and 82.5%
viability, T/C (compound 3.16 µM): 90.7% and 87.1% and 84.1%
viability, T/C (compound 10 µM): 43.1% and 49.8% and 47%

IC50 (curve of compound): > 0.316 µM
Compound: Cn1ncnc1[C@H]1c2n[nH]c(=O)c3cc(F)cc(c23)N[C@@H]1c1ccc(F)cc1
viability, T/C (compound 0.000999 µM): 105% (2×) and 104%
viability, T/C (compound 0.00316 µM): 103% and 101% and 89.8%
viability, T/C (compound 0.00999 µM): 92.7% and 94.7% and 116%
viability, T/C (compound 0.0316 µM): 107% and 106% and 84.5%
viability, T/C (compound 0.0999 µM): 88.5% and 94.8% and 95.9%
viability, T/C (compound 0.316 µM): 125% and 105% and 92.4%

IC50 (curve of compound): > 10 µM
Compound: COc1ncnc(C2CC2)c1-c1ncc2cnn(Cc3ccc(-c4nc(C(F)(F)F)cn4C(C)C)cc3)c2n1
viability, T/C (compound 0.0316 µM): 105% and 110% and 90.2%
viability, T/C (compound 0.1 µM): 115% and 110% and 86.3%
viability, T/C (compound 0.316 µM): 95.2% and 96.1% and 84.1%
viability, T/C (compound 1 µM): 102% (2×) and 85%
viability, T/C (compound 3.16 µM): 107% and 93.2% and 89.6%
viability, T/C (compound 10 µM): 82.6% and 87.6% and 91.8%
